From ChEMBL document CHEMBL5728127, “Diarylalkanes as potent inhibitors of binuclear enzymes” (2020)

target: T1, Polyphenol oxidase 1 (Agaricus bisporus, UniProt Q00024); test: Using this method, the conversion of L-Dopa, a substrate of tyrosinase, into dopachrome is followed by monitoring absorption at 450 nm. Tyrosinase was prepared in 50 mM potassium phosphate buffer, pH 6.8 (assay buffer) at 2000 U/ml and stored at −20° C. in 1 ml aliquots prior to use. For use in assays, stock enzyme solutions were thawed and diluted to 200 U/ml with assay buffer. A 2 mM working solution of substrate, L-DOPA, was prepared in assay buffer for each assay. Samples were dissolved in 10% DMSO (0.5 ml) and diluted to 5 ml with assay buffer. The reaction mixture consisted of 0.050 ml 2 mM L-DOPA, 0.050 ml 200 U/ml mushroom tyrosinase and 0.050 ml inhibitor. Reaction volume was adjusted to 200 μl with assay buffer. […] Average velocity was determined from linear enzyme rate as measured by change in absorbance (ΔA450) at 450 nm per minute.
T1 sequence (Q00024 whole entry): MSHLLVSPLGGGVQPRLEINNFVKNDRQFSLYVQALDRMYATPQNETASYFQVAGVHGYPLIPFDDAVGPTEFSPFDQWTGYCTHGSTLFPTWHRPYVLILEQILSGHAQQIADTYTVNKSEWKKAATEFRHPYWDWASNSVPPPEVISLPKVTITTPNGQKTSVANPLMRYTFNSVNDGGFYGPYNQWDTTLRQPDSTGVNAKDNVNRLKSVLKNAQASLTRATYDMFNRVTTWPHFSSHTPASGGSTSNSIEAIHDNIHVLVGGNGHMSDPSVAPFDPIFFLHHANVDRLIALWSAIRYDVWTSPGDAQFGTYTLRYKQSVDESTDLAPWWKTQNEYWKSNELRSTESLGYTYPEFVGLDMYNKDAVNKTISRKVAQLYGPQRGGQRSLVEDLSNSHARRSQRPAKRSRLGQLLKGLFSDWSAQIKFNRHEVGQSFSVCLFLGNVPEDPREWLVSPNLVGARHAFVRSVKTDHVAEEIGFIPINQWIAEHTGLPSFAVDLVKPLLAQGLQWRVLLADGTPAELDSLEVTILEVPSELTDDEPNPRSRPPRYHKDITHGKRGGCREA

IC50 [µM]	Structure (SMILES)
0.24	COc1ccc(CCCc2ccc(O)cc2O)c(OC)c1C
1200	COc1ccc(CCC(O)c2c(O)cc(O)cc2O)cc1O (stereo unspecified)
375	COc1cc(O)c(C(O)CCc2ccc(O)c(OC)c2)c(OC)c1 (stereo unspecified)
0.7	Oc1ccc(C(O)CCc2ccccc2O)c(O)c1 (stereo unspecified)
77	COc1ccc(CC(O)c2ccc(O)cc2O)cc1 (stereo unspecified)
1000	Oc1ccc(C(O)Cc2ccc(Cl)cc2Cl)c(O)c1 (stereo unspecified)
305	Oc1ccc(CCC(O)c2ccc(O)cc2)cc1 (stereo unspecified)
24	COc1ccc(O)c(CCCc2ccc(O)cc2OC)c1
8	Nc1ccc(CCC(O)c2c(O)cc(O)cc2O)cc1 (stereo unspecified)
1000	COc1ccc(CCC(O)c2cc(OC)ccc2O)c(OC)c1 (stereo unspecified)
700	CC(Cc1ccc(O)c(O)c1)C(C)Cc1ccc(O)c(O)c1 (stereo unspecified) [NORDIHYDROGUAIARETIC ACID]
